Laboratory results published in patent US20190262355A1, “COMBINATION OF A BRD4 INHIBITOR AND AN ANTIFOLATE FOR THE THERAPY OF CANCER” (CeMM-Forschungszentrum für Molekulare Medizin GmbH, priority 2016, published 2019).

Columns and labels:
[1] = tested on: BRD4; experiment: REDS reporter cell line, RFP expression (Redness) on BRD4 inhibition; format: cell-based, human
From the text: Live cell imaging pictures were taken from cells seeded on clear flat bottom 96-well or 384-well plates (Corning), with the Operetta High Content Screening System (PerkinElmer), 20× objective and non-confocal mode. RFP quantification was done using the basic PerkinElmer software for nuclei detection and analysis, adapted for the nucleus diameter range of the specific cell line used (KBM7, 13 μm). Only RFP positive nuclei were detected and counted.
(§1) The prerequisite for effective GT genetic screens is a haploid system where monoallelic disruptive GT integration results in gene knock-out (KO). Therefore, KBM7 cells, a chronic myeloid leukemia cell line with near haploid karyotype, were chosen for the generation of the BRD4 reporter cell lines as previously described^15. […] Propidium iodide (PI) incorporation and FACS analysis were used to assay the cell cycle profile of several REDS clones in order to select a haploid clone suitable for GT-based genetic screen.
The suitability of the REDS1 clone for a GT-based genetic screen was then further validated.

[2] = tested on: A549 cells; experiment: Cell viability of A549 cells after MTHFD1 knock-down; format: cell-based; details: 72 hours (S)-JQ1 (FIG. 21A)
Experimental: KBM7 (human chronic myelogenous leukemia cell lines), MV4-11 (biphenotypic B myelomonocytic leukemia), MEG-01 (human chronic myelogenous leukemia), K-562 (human chronic myelogenous leukemia) and HAP1 (KBM7-derived) cell lines were cultured in Iscove's Modified Dulbecco's Medium (IMDM, Gibco), supplemented with 10% Fetal Bovine Serum (FBS; Gibco). HEK293T (human embryonic kidney) and HELA (cervix adenocarcinoma) cell lines were cultured in Dulbecco's Modified Eagles Medium (DMEM, Gibco) supplemented with 10% FBS. MOLM-13 (human acute monocytic leukemia), NOMO-1 (human acute monocytic leukemia) and A549 (lung carcinoma) cell lines were cultured in RPMI-1640 (Roswell Park Memorial Institute, Gibco) supplemented with 10% FBS. All the mentioned cell lines were incubated in 5% CO2 atmosphere at 37° C.

[3] = tested on: A549 xenograft; experiment: A549 xenograft mouse model; format: in vivo; details: NOD SCID gamma mice; 30 mg/kg (S)-JQ1 i.p. five times per week and/or 25 mg/kg MTX i.p. twice weekly from day 19 to day 43 (FIG. 21B-D)
Experimental: Mouse xenograft studies were performed as described previously^35. 2×10^6 A549 cells, diluted 1:1 in matrigel, were transplanted subcutaneously into NOD SCID gamma mice. Treatment (30 mg/kg (S)-JQ1 by intraperitoneal injection five times per week, and 25 mg/kg MTX per intraperitoneal injection twice weekly) was started when tumors were established, 19 days post transplantation. Tumor volumes were evaluated twice a week by measuring two perpendicular diameters with calipers. Tumor volume was calculated using the following equation: (width*width*length)/2. Treatment was performed according to an animal licence protocol approved by the Bundesministerium für Wissenschaft and Forschung (BMWF-66.009/0280-II/3b/2012). At day 43 mice were sacrificed and tumors excised and weighted.

[4] = tested on: panel of six cell lines (four not sensitive to BRD4 inhibition, plus KBM7 and HAP1); experiment: Cell viability of cancer cell lines, single agents and combination; format: cell-based, human; details: NOMO-1 the most sensitive to MTX (FIG. 13A, 13B)
Experimental: HEK293T (human embryonic kidney) and HELA (cervix adenocarcinoma) cell lines were cultured in Dulbecco's Modified Eagles Medium (DMEM, Gibco) supplemented with 10% FBS. […] All the mentioned cell lines were incubated in 5% CO2 atmosphere at 37° C.

[5] = molecular target: T1, BRD4-MTHFD1 interaction (Homo sapiens, UniProt O60885+P11586); experiment: MTHFD1 pull-down on HAP1 whole cell lysates (BRD4-MTHFD1 interaction); format: binding; details: HAP1 whole cell lysates treated with 50 μM (FIG. 9I)
T1 construct: MTHFD1 pull-down performed on HAP1 whole cell lysates treated with 50 μM (S)-JQ1, MTX; endogenous in cells; host or cells: HAP1
T1 sequence (P11586 whole entry, other chains not shown): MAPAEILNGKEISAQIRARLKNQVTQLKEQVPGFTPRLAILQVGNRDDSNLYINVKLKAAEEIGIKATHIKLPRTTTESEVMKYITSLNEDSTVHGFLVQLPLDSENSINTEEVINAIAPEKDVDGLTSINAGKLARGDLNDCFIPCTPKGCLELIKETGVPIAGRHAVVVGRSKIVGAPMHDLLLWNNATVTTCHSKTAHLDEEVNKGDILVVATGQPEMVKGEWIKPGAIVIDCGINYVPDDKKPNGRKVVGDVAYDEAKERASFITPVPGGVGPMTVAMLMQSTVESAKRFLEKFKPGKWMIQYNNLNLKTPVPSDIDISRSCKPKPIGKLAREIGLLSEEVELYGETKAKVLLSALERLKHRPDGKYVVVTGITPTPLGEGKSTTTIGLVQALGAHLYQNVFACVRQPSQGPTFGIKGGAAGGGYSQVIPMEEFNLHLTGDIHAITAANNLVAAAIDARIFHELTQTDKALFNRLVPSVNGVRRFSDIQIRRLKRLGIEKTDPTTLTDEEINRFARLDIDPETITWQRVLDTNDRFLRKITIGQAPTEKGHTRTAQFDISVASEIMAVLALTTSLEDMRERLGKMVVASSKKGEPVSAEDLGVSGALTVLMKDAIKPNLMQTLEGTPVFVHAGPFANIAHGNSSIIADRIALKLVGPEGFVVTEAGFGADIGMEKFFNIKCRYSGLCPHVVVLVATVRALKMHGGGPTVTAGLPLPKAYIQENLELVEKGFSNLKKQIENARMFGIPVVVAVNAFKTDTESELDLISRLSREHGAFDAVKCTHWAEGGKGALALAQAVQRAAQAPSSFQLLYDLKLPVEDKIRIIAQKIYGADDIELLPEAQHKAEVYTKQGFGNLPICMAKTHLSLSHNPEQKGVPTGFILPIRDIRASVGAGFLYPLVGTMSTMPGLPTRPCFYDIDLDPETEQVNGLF
Experimental: For immunoprecipitation, 1 mg of protein extract was incubated overnight at 4° C. with 10 μl of Dynabeads (either A or G, Life technology) preincubated for 2 hours at 4° C. with 1 μg of BRD4 (ab128874, Abcam), MTHFD1 (A8, Santa Cruz) or GFP (G10362, Life Technology) antibodies.

[6] = tested on: WT-KBM7 cells; experiment: Cell cycle profile by PI staining and FACS (diploidization); format: cell-based, human; details: treated overnight during one week, PI incorporation and FACS (FIG. 6D)
Experimental: For cell cycle analysis, 1 million cells were fixed with 70% ethanol for 24 hours, washed with PBS/1% BSA/0.1% Tween and incubated with RNase for 30 minutes. Nuclei were stained with 5 μg/ml PI (propidium iodide, Sigma) for 10 minutes prior to FACS analysis (BD FACSCalibur Flow Cytometer).
as §1, with “screen. […] REDS1 was the only clonal cell line with haploid karyotype (see FIG. 6B), also confirmed by metaphase spreads (see FIG. 6C).” for “screen.”

[7] = tested on: nuclear folate pool; experiment: Folate metabolites in nuclear and cytosolic fractions of HAP1 cells (LC-MS/MS); format: cell-based, human; details: 6 hours, MTX and (S)-JQ1 1 μM, dBET6 0.5 μM (FIG. 19B)
Experimental: In order to quantify folates in the nuclear and cytosolic fractions, 20 millions of HAP1 cells per condition were washed twice with cold PBS, and collected into 50 ml falcon tube by centrifugation for 5 minutes at 280 g and 4° C. Cell lysis was performed on ice in the dark by incubating cell pellets with 1:5 hypotonic lysis buffer for 10 minutes. Nuclei were collected by centrifugation for 5 minutes at 420 g and 4° C. Supernatants (cytosolic fractions) were also collected. Both fractions were immediately snap frozen. For nucleus samples, 10 μL of ISTD mixture was added to nucleus pellet in 1.5 mL Eppendorf tube followed by addition of 145 μL of ice-cold extraction solvent (10 mg/mL ascorbic acid solution in 80% methanol, 20% water, v/v). The samples were vortexed for 10 seconds, afterwards incubated on ice for 3 min and vortexed again for 10 seconds. After centrifugation (14000 rpm, 10 min, 4° C.), the supernatant was collected into HPLC vials. […] An Acquity UHPLC system (Waters) coupled with Xevo TQ-MS (Waters) triple quadrupole mass spectrometer was used for quantitative analysis of metabolites. […] Quantification of all metabolites was performed using MassLynx V4.1 software from Waters. The seven-point linear calibration curves with internal standardization and 1/× weighing was constructed for the quantification.

[8] = tested on: MTHFD1 nuclear localization; experiment: Nuclear vs cytosol fractionation Western blot in HAP1 cells; format: cell-based, human; details: MTX 1 μM, 24 hours (FIG. 2D)
Experimental: For Western Blot, proteins were separated on polyacrylamide gels with SDS running buffer (50 mM Tris, 380 mM Glycine, 7 mM SDS) and transferred to nitrocellulose blotting membranes. All membranes were blocked with blocking buffer (5% (m/v) milk powder (BioRad) in TBST (Tris-Buffered Saline with Tween: 50 mM Tris (tris (hydroxymethyl)aminomethane), 150 mM NaCl, 0.05% (v/v) Tween 20, adjusted to pH 7.6). Proteins were probed with antibodies against BRD4 (ab128874, 1:1000, Abcam), Actin (ab16039, 1:1000, Abcam), MTHFD1 (ab70203, Abcam; H120, Santa Cruz; A8, Santa Cruz; all used at 1:1000), GFP (G10362, 1:1000, Life Technology), RCC1 (C-20, 1:1000, Santa Cruz), β-Tubulin (T-4026, 1:1000, Sigma), SHMT1 (ab186130, 1:1000, Abcam) and H2B (ab156197, 1:1000, Abcam) and detected by HRP (horseradish peroxidase) conjugated donkey anti-rabbit IgG antibody (ab16284, 1:5000, Abcam) or donkey anti-mouse IgG antibody (Pierce) and visualized with the Pierce ECL Western Blotting substrate (Amersham), according to the provided protocol.

[9] = molecular target: T2, chromatin-bound BRD4 (Homo sapiens, UniProt O60885); experiment: Western blot of chromatin associated proteins: BRD4; format: cell-based; details: HAP1 cells, MTX 1 μM, 2 or 24 hours (FIG. 2C)
T2 construct: Western Blot assay performed on chromatin associated protein samples extracted from HAP1 cells treated with the indicated compounds; endogenous in cells; host or cells: HAP1
Experimental: Cell fractionation and chromatin enrichment was carried out as previously described^29 with some adaptations. Briefly, for 100 million cells, the chromatin enriched pellet was taken up in 250 μl benzonase digestion buffer (15 mM HEPES, 1 mM EDTA, 1 mM EGTA, 0.1% NP40, protease inhibitor cocktail (cOmplete, Roche)) after washing, and sonicated for 120 seconds on the Covaris S220 focused-ultrasonicator with the following settings: Peak Power 140; Duty-Factor 10.0; Cycles/Burst 200. After addition of 0.25 U benzonase and 2.5 μg RNase, the chromatin was incubated for 40 minutes at 4° C. on a rotary shaker. 2× SDS lysis buffer (100 mM HEPES, 4% SDS, 2 mM PMSF and protease inhibitor cocktail (cOmplete, Roche)) was added to the samples in a 1:1 ratio and incubated for 10 minutes at room temperature followed by 5 minutes denaturation at 99° C. After centrifugation at 16,000 g for 10 minutes at room temperature, the supernatant was transferred to a new tube.

SMILES | RFP expression detected by live cell imaging ([1]; REDS1 cells, 1 μM, 24 hours (FIG. 7B)) | expression of the reporter gene RFP in REDS detected by FACS ([1]; REDS clones, 0.5 μM (S)-JQ1 (FIG. 6A)) | sensitivity to (S)-JQ1 after shRNA for MTHFD1 [2] | tumor growth [3] | sensitivity of cell lines to single treatment (dose response curves) [4] | effect on BRD4-MTHFD1 interaction in MTHFD1 pull-down [5] | diploidization of WT-KBM7 (cell cycle profile) [6] | Redness after MTX treatment ([1]; REDS reporter cells, three days of MTX (FIG. 13C)) | changes in the nuclear folate pool [7] | MTHFD1 (or SHMT1) nuclear localization [8] | BRD4 levels on chromatin after MTX [9]
Cc1sc2c(c1C)C(c1ccc(Cl)cc1)=N[C@@H](CC(=O)OC(C)(C)C)c1nnc(C)n1-2 [(S)-JQ1] | robustly expressed RFP | rapid and consistent expression of the reporter gene red fluorescent protein (RFP) | increased sensitivity | not impaired | low sensitivity | unaffected | induced WT-KBM7 diploidization | – | – | – | –
CN(Cc1cnc2nc(N)nc(N)c2n1)c1ccc(C(=O)N[C@@H](CCC(=O)O)C(=O)O)cc1 [MTX, methotrexate] | – | – | – | not impaired | moderate to low sensitivity | unaffected | – | only weakly increased | highly correlated characteristic changes specifically in the nuclear folate pool | not impairing MTHFD1 (or SHMT1) nuclear localization | did not affect BRD4 levels
